The text below walks through data of ChEMBL document CHEMBL1201862, “PubChem BioAssay data set” (2004).

The target of assay [1] is T1, Hexokinase HKDC1 (Homo sapiens, UniProt Q2TB90).
T1 sequence (Q2TB90 whole entry): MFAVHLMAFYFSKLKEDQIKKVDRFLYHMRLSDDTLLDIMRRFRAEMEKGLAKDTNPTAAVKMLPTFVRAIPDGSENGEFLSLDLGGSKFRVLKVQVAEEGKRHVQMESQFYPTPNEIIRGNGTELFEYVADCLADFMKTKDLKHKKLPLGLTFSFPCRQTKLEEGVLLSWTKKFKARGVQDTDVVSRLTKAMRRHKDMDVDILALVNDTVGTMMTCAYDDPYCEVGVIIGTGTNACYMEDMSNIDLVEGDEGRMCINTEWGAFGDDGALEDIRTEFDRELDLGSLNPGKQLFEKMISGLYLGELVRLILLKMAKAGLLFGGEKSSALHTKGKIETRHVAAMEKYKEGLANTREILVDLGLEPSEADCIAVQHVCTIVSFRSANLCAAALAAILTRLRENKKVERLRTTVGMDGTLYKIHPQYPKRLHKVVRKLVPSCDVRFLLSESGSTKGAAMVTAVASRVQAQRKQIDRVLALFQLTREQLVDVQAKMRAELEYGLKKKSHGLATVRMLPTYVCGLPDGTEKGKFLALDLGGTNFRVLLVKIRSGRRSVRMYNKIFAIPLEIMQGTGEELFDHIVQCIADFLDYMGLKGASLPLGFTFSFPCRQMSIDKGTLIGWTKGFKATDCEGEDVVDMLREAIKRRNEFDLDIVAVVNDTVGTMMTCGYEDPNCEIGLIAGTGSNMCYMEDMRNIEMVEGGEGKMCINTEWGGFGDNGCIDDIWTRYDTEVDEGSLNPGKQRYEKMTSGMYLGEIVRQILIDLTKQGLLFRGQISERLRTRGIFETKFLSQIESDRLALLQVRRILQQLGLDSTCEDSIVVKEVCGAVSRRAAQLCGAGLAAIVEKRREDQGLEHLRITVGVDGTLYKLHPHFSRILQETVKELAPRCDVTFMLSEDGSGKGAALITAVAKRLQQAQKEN
The experiment in a line: HKDC1 hexokinase inhibitors, dose response, biochemical, W721R variant (AID 504729). It is filed as functional.

The target of assay [2] is T2, Adenosylmethionine-8-amino-7-oxononanoate aminotransferase (Mycobacterium tuberculosis, UniProt P9WQ81).
T2 sequence (P9WQ81 whole entry): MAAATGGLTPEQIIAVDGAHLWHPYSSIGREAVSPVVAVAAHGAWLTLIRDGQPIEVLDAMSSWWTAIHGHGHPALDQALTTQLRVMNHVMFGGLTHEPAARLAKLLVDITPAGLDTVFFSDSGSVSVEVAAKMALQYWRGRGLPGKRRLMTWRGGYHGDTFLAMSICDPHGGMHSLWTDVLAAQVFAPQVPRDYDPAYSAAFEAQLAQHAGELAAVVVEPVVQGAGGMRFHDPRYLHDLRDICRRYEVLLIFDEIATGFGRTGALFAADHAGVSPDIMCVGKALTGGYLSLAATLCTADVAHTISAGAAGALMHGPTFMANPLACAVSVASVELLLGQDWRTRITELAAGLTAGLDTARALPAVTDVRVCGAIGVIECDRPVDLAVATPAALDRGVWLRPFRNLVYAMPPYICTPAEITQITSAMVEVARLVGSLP
The experiment in a line: Mycobacterium tuberculosis BioA enzyme inhibitor Measured in Biochemical System Using Plate Reader - 2163-02_Inhibitor_Dose_CherryPick_Activity. The format is functional, Mycobacterium tuberculosis UT205.

Assay [3] deals with Vasopressin V1a receptor (Homo sapiens, UniProt P37288). Kind of assay: Counterscreen for Oxytocin Receptor (OXTR) agonists: Fluorescence-based cell-based high throughput dose response assay to identify agonists of the vasopressin 1 receptor (V1R). [Related pubchem assays: 2435 (Primary screen (OXTR agonists in singlicate)), 434991 (Counterscreen (V1R agonists in triplicate)), 2482 (Summary (OXTR agonists)) …. It is filed as functional.
Sequence of Vasopressin V1a receptor (P37288 whole entry): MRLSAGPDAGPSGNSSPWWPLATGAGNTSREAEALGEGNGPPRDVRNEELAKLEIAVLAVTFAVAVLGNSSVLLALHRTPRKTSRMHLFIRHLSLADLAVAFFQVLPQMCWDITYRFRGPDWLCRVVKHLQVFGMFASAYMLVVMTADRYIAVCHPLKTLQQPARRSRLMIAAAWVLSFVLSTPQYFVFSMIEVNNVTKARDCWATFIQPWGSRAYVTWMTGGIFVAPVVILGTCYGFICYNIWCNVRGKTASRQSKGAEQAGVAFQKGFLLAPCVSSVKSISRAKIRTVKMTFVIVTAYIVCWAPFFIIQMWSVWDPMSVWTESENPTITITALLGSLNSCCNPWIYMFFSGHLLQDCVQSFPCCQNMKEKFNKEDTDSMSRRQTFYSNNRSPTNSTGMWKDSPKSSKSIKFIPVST

The target in assay [4] is Oxytocin receptor (Homo sapiens, UniProt P30559). The experiment in a line: Fluorescence-based cell-based high throughput dose response assay for agonists of the Oxytocin Receptor (OXTR). [Related pubchem assays: 2435 (Primary screen (OXTR agonists in singlicate)), 434991 (Counterscreen (V1R agonists in triplicate)), 2482 (Summary (OXTR agonists)), 434963 (Confirmation screen (OXTR agonists in triplicate))]. It is filed as functional.
Sequence of Oxytocin receptor (P30559 whole entry): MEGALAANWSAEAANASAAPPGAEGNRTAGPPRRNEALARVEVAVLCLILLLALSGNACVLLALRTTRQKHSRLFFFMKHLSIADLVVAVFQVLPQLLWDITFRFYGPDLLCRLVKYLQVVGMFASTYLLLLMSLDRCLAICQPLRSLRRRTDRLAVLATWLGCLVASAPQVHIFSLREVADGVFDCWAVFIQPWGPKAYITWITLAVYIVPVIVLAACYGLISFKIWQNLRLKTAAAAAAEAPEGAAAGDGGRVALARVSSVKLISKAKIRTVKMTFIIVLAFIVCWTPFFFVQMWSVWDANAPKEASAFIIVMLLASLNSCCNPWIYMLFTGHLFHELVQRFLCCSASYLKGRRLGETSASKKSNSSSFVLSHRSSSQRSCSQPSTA

Assay [5] addresses Cytochrome P450 2C19 (Homo sapiens, UniProt P33261). Kind of assay: qHTS Assay for Inhibitors and Substrates of Cytochrome P450 2C19. [Related pubchem assays: 410 ]. It is filed as ADME. Particulars: read-out: Potency.
Assay [6] deals with Cytochrome P450 2D6 (Homo sapiens, UniProt P10635). The experiment in a line: qHTS Assay for Inhibitors and Substrates of Cytochrome P450 2D6. [Related pubchem assays: 410 ]. The format is ADME. Particulars: read-out: Potency.
Sequence of Cytochrome P450 2D6 (P10635 whole entry): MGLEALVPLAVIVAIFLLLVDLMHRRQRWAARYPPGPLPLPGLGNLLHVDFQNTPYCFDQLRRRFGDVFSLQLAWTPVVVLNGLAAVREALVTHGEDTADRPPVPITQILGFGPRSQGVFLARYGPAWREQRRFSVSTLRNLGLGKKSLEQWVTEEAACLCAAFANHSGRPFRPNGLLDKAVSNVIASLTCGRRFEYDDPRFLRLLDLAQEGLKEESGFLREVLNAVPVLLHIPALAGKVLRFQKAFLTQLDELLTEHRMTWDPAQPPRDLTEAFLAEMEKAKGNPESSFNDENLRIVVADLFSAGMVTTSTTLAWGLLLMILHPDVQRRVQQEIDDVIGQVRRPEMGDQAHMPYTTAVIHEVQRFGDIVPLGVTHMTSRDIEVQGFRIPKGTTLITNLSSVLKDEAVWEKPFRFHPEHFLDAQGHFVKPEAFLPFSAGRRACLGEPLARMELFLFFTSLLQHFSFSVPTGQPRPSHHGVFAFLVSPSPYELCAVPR
Assay [7] addresses Cytochrome P450 2C9 (Homo sapiens, UniProt P11712). Particulars: Potency.

Activity calls are given as the source filed them.

Sequence of Cytochrome P450 2C19 (P33261 whole entry): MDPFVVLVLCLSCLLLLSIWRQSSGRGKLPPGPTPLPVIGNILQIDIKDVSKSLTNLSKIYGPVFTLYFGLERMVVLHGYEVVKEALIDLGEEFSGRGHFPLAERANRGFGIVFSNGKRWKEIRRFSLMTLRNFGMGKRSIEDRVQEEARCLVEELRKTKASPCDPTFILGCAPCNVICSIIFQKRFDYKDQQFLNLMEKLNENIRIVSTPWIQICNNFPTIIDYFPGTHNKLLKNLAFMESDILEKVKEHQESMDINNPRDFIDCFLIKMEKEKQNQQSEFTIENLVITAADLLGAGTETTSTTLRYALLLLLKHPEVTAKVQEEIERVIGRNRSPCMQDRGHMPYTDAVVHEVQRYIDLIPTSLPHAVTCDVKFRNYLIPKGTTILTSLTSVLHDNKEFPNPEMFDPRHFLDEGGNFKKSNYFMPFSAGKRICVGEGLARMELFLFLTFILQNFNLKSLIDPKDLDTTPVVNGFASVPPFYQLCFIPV
Sequence of Cytochrome P450 2C9 (P11712 whole entry): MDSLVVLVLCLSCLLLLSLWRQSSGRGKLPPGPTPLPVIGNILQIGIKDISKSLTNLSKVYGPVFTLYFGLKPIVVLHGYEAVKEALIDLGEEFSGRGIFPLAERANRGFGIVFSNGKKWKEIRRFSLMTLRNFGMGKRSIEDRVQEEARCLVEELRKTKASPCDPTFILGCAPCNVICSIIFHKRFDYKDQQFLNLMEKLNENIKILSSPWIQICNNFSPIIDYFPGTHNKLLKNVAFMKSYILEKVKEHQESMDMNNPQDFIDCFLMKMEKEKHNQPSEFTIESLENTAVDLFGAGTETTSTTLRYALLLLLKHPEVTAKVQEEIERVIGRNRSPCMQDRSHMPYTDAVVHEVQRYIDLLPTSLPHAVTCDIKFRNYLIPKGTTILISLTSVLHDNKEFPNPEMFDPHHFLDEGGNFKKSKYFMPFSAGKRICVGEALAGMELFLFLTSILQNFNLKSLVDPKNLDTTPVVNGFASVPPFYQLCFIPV

For `O=C(CSc1nnc(-c2cccnc2)[nH]1)Nc1ccnc2ccccc12`, the IC50 in assay [1] is 13.1 µM (active). The AC50 in assay [2] is 6.07 µM (active).
`Cc1cc(-c2nnc(SCC(=O)Nc3ccccc3C(F)(F)F)o2)c(C)n1-c1ccccc1`: the EC50 in assay [3] and in assay [4] was > 29.9 µM (not active) each time.
For the compound `COc1ccc2oc(-c3ccccc3)c(OC)c(=O)c2c1` [3,6-DIMETHOXYFLAVONE], the AC50 was 10 µM (inconclusive) in assay [5] and 39.8 µM (inconclusive) in assay [6].
Regarding `CC[C@H]1C(=O)OC[C@@H]1Cc1cncn1C`, in assay [7], the AC50 was 12.6 µM (inconclusive).
